Measured values from ChEMBL document CHEMBL4400534, “Pharmacophore-based design of novel 3-hydroxypyrimidine-2,4-dione subtypes as inhibitors of HIV reverse transcriptase-associated RNase H: Tolerance of a nonflexible linker” (Eur J Med Chem, 2019).

What was measured:
[1] = target: T1, Human immunodeficiency virus type 1 reverse transcriptase (Human immunodeficiency virus 1, UniProt Q72547); experiment: Inhibition of HIV1 reverse transcriptase RNase H expressed in Escherichia coli JM109 using RNA/DNA duplex substrate HTS-1
[2] = target: T1, Human immunodeficiency virus type 1 reverse transcriptase; experiment: Inhibition of HIV1 reverse transcriptase polymerase using deoxynucleotide triphosphates and 18 nucleotide DNA primer annealed to 100 nucleotide DNA template after 30 mins
[3] = target: Human immunodeficiency virus type 1 integrase (Human immunodeficiency virus 1, UniProt Q7ZJM1); experiment: Inhibition of HIV1 integrase strand transfer activity using 5'-biotinylated oligonucleotide as substrate preincubated for 10 mins followed by substrate addition and measured after 30 mins
Chain of Human immunodeficiency virus type 1 integrase (Q7ZJM1 whole entry): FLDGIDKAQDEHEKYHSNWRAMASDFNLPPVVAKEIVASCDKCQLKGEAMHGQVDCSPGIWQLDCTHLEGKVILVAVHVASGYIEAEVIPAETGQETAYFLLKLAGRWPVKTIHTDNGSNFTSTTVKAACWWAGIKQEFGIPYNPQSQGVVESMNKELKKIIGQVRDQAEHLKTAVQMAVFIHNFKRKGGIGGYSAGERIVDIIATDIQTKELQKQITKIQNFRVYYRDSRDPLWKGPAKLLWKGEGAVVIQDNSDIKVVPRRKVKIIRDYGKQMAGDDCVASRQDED

[4] = system: Human immunodeficiency virus 1; experiment: Antiviral activity against HIV-1 infected in human P4R5 cells assessed as reduction in viral replication preincubated for 24 hrs followed by viral infection and measured after 48 hrs by MAGI assay; type: functional, organism-based
[5] = Cytotoxicity against human P4R5 cells after 72 hrs by XTT assay; type: cell-based

Row | Compound | IC50 [1] [µM] | IC50 [2] [µM] | IC50 [3] [µM] | EC50 [4] [µM] | CC50 [5] [µM]
1 | CCOCn1c(C(C#N)c2cc(C)cc(C)c2)cc(=O)n(O)c1=O (stereo not given) | 3.7 | > 10 | > 100 | > 20 | > 100
2 | Cc1cc(C)cc(C(=O)c2cc(=O)n(O)c(=O)[nH]2)c1 | 0.09 | > 10 | 4.9 | 9.5 | 21
3 | O=C(c1ccc(-c2ccc(Cl)c(F)c2)cc1)c1cc(=O)n(O)c(=O)[nH]1 | 0.023 | > 10 | 0.37 | 18 | > 100
4 | COc1ccc(-c2ccc(C(=O)c3cc(=O)n(O)c(=O)[nH]3)cc2)cc1OC | 0.074 | 9.6 | 0.33 | 6.7 | 8.4
5 | O=C(c1ccc(-c2ccc(C(F)(F)F)cc2)cc1)c1cc(=O)n(O)c(=O)[nH]1 | 0.026 | > 10 | > 100 | 5.3 | 17
6 | CCOCn1c(C(=O)c2cccc(-c3ccccc3)c2)cc(=O)n(O)c1=O | 1.1 | > 10 | > 100 | 12 | 73
7 | COC(=O)c1ccc(C(=O)c2cc(=O)n(O)c(=O)[nH]2)cc1 | 0.031 | > 10 | 13 | > 20 | > 100
8 | O=C(c1ccc(-c2ccccc2)cc1)c1cc(=O)n(O)c(=O)[nH]1 | 0.022 | > 10 | 2.5 | 15 | > 100
9 | CCOCn1c(C(C#N)c2ccc(-c3ccccc3)cc2)cc(=O)n(O)c1=O (stereo not given) | 0.76 | > 10 | > 100 | > 20 | > 100
10 | COC(=O)c1ccc(-c2ccc(C(=O)c3cc(=O)n(O)c(=O)[nH]3)cc2)cc1 | 0.015 | > 10 | 6.7 | > 20 | > 100
11 | N#Cc1ccc(-c2ccc(C(=O)c3cc(=O)n(O)c(=O)[nH]3)cc2)cc1 | 0.024 | 7.7 | 0.53 | > 20 | > 100
12 | COc1ccc(-c2ccc(C(=O)c3cc(=O)n(O)c(=O)[nH]3)cc2)cc1 | 0.53 | 5.9 | > 100 | > 20 | > 100
13 | O=C(c1ccc(F)cc1)c1cc(=O)n(O)c(=O)[nH]1 | 0.085 | > 10 | 4 | > 20 | > 100
14 | Cc1cc(C)cc(-c2ccc(C(=O)c3cc(=O)n(O)c(=O)[nH]3)cc2)c1 | 0.063 | > 10 | 3.5 | > 20 | > 100
15 | CCOCn1c(C(=O)c2ccc(-c3ccccc3)cc2)cc(=O)n(O)c1=O | 0.42 | > 10 | > 100 | > 20 | > 100
16 | Cc1cc(-c2ccc(C(=O)c3cc(=O)n(O)c(=O)[nH]3)cc2)ccc1F | 0.019 | 8.3 | 4.3 | > 20 | > 100
17 | Cc1ccc(C(=O)c2cc(=O)n(O)c(=O)[nH]2)cc1 | 0.093 | > 10 | 7.2 | > 20 | 48
18 | O=C(c1ccc(-c2ccc(F)cc2)cc1)c1cc(=O)n(O)c(=O)[nH]1 | 0.027 | > 10 | 6.7 | 9 | > 100
19 | Cc1ccc(-c2ccc(C(=O)c3cc(=O)n(O)c(=O)[nH]3)cc2)cc1 | 0.021 | > 10 | 10 | 4.7 | 22
20 | O=C(c1ccc(C(F)(F)F)cc1)c1cc(=O)n(O)c(=O)[nH]1 | 0.081 | > 10 | 2.1 | > 20 | > 100
21 | O=C(c1cccc(-c2ccccc2)c1)c1cc(=O)n(O)c(=O)[nH]1 | 0.017 | > 10 | 7.1 | > 20 | > 100
